Type in all cases: ADME, organism-based, Sus scrofa
Details in all cases: read-out: Stability

Data set [1] in a line: Metabolic stability in iv dosed pig plasma after 30 seconds.
Data set [2] in a line: Metabolic stability in iv dosed pig plasma after 2 mins.
Data set [3] can be described thus: Metabolic stability in iv dosed pig plasma after 10 mins.
A short description of data set [4]: Metabolic stability in iv dosed pig plasma after 30 mins.
Data set [5] in a line: Metabolic stability in iv dosed pig plasma after 50 mins.

Take `[11CH3]n1cccc1C(=O)[C@@H](c1ccccc1)N1CCCC1`: the remaining at 0.5 min in data set [1] worked out at 99.7%. Further, in data set [2], the remaining at 2 min was 98%. Besides, the remaining at 10 min in data set [3] came out at 68%. Besides, in data set [4], the remaining at 0.5 h was found to be 41%. The remaining at 50 min in data set [5] came out at 24%.
On the same counts, the results for `[11CH3]n1cccc1C(=O)[C@H](c1ccccc1)N1CCCC1` are 99.7%, 98%, 68%, 41% and 24%.

The record behind these values is ChEMBL document CHEMBL1142324, “Synthesis and cerebral uptake of 1-(1-[(11)C]methyl-1H-pyrrol-2-yl)-2-phenyl-2-(1-pyrrolidinyl)ethanone, a novel tracer for positron emission tomography studies of monoamine oxidase type A” (J Med Chem, 2008).
